90 molecules from PubChem BioAssay AID449745 (Broad Institute, 2010) can be followed below.

As usually defined, the AC50 is the midpoint of the concentration-response curve, whichever way the signal moves.

Inconclusive results are not listed. Calls of active or inactive are those of the source. The rule behind the calls is not given here.

This experiment has as its target Zinc finger protein mex-5 (Caenorhabditis elegans) (UniProt Q9XUB2). Kind of experiment: retest of MEX-5 TCR-2 binding inhibitors, confirmation, biochemical, C. elegans, fluorescence polarization, dose retest (AID 449745).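 Note: potency is for blocking Mex-5 binding to labeled TCR2 RNA like unlabeled competitor.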 Particulars: Mex-5 / TCR-2 RNA binding. For orientation: In fluorescence polarisation assays a small probe gives low polarisation when free and higher when bound to something large.

Zinc finger protein mex-5 (Caenorhabditis elegans), sequence (Q9XUB2 whole entry, looked up): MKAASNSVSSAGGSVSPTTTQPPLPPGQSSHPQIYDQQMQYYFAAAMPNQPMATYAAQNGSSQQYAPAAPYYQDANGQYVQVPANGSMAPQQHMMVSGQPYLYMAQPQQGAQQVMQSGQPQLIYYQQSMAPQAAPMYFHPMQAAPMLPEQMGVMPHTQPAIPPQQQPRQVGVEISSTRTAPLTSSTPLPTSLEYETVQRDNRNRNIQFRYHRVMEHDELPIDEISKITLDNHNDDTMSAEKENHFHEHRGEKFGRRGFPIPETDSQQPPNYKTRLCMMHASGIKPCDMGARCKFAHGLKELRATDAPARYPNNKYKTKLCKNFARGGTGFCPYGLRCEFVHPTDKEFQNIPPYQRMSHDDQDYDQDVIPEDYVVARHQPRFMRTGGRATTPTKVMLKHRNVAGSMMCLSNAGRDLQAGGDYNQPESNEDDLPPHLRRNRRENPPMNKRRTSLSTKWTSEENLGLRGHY

For `CCCCC1=CC2=C(c3ccco3)C(=O)C(C)(OC(=O)c3ccc(OC)cc3)C(=O)C2=CN1C(CO)CO` (stereo not given), the AC50 was > 38 µM (inactive).
Turning to `C[n+]1c2ccccc2nc2ccc(NCCO)cc21`, the AC50 was 30.6 µM.
On to `O=C(O)c1ccc(NS(=O)(=O)c2ccc3c(c2)C(=O)c2ccccc2C3=O)cc1`, for which the AC50 was 28.4 µM.
As to `O=c1c2ccccc2c(C=Nc2ccc(O)cc2)c(O)n1-c1nccs1`, the AC50 was > 38 µM (inactive).
Regarding `C#CCN1C(=O)S/C(=C\c2ccc(-c3ccc(Cl)c(C(=O)O)c3)o2)C1=O`, the AC50 was > 38 µM (inactive).
The result for `O=C1CCCC(O)=C1N=Nc1ccc(C(=O)O)cc1` reads 32.9 µM; that for `Oc1[nH]c2ccccc2c1N=NC(=S)N1CCOCC1`, 6.32 µM.
For the molecule `O=C1CSC(=S)N1/N=C/c1cc(Br)c(O)c(Br)c1`, the AC50 is > 38 µM (inactive).
In the case of `Nc1ccc(N(CCO)CCO)cc1`, the AC50 was > 38 µM (inactive).
The result for `Nc1ccc2nc(CN3CCOCC3)[nH]c2c1` reads 34.4 µM.
For the molecule `Cn1nc([N+](=O)[O-])c(C(C#N)c2nc3ccccc3n2C)c(Cl)c1=O` (stereo not given), the AC50 is 22.9 µM.
For `COc1ccc(C(=O)N2C(=S)NC(=O)/C2=C\c2ccc(C)cc2)cc1` the value was > 38 µM (inactive); for `COC/C=C/C1=CC2=CC(=O)C(C)(O)C(=O)C2=CO1` (stereo not given), 13 µM.
For `Cn1c(O)c(/C=N/NC(=O)c2cc3ccccc3cc2O)c2ccccc21` the value was 5.01 µM.
Regarding `COC(=O)c1cc(O)c(O)c(O)c1`, the AC50 was 25.4 µM.
The result for `O=C(N/N=C/C1C(=O)NC(=S)N(c2ccccc2)C1=O)c1cc(Br)c(O)c(Br)c1` (stereo not given) reads 13 µM.
In the case of `CC(=O)Nc1ccc(S(=O)(=O)NCC(=O)NNC(=O)c2csc(N3CCOCC3)n2)cc1`, the concentration at half-maximal activity (AC50) was 12.7 µM.
For `Brc1ccc(C2=CC(c3cccs3)n3ncnc3N2)cc1` (stereo not given), the AC50 is 15.8 µM.
Regarding `Cc1cc2ccccc2n1CCNC(=O)c1ccc(Br)o1`, the AC50 was > 38 µM (inactive).
`CC(=O)OC1=C(O)C(=O)c2ccccc2C1=O`: the AC50 was 10.3 µM.
The result for `O=c1[nH][nH]c2cc(=O)n(-c3cccc(C(F)(F)F)c3)nc12` reads 20.3 µM; that for `CN(C)C1C(=O)C(C(N)=O)=C(O)C2(O)C(=O)C3=C(O)c4c(O)cccc4C(C)(O)C3CC12` (stereo not given), > 38 µM (inactive).
The result for `CCCCOc1ccc2c(c1)/C(=C(\C(Cl)=C(Cl)Cl)[N+](=O)[O-])N2` reads 14.2 µM; that for `COc1ccc(C(=O)c2c(N)sc3c2CCN(C)C3)cc1`, > 38 µM (inactive).
In the case of `COc1cccc(NC(=O)CSc2nc3ccccc3nc2N2CCOCC2)c1`, the AC50 is > 38 µM (inactive).
For the molecule `CCc1nnc(NS(=O)(=O)c2ccc(N=Cc3c(O)n(-c4ccc(Cl)cc4)c(=O)[nH]c3=O)cc2)s1`, the AC50 is > 38 µM (inactive).
The result for `CCCCCC#CCC#CCC#CCC#CCCCC(=O)O` reads 6.71 µM; that for `CN(C)[C@@H]1C(=O)C(C(N)=O)=C(O)[C@@]2(O)C(=O)C3=C(O)c4c(O)cccc4[C@@](C)(O)[C@H]3[C@H](O)[C@@H]12`, 12 µM; that for `COc1ccccc1CN1CC(C(=O)NCCN(C)CCc2ccccc2)CCC1=O` (stereo not given), > 38 µM (inactive).
For `CC(C)C1Nc2ccc(C(=O)O)cc2C2C=CCC21` (stereo not given) the value was > 38 µM (inactive); for `COC/C=C/C1=CC2=CC(=O)C(C)(OC(=O)c3cnc4ccccc4n3)C(=O)C2=CO1` (stereo not given), 17.4 µM.
In the case of `Cc1cccc(CS(=O)(=O)c2nnc([C@H](Cc3ccccc3)NC(=O)OC(C)(C)C)o2)c1`, the AC50 is > 38 µM (inactive).
For `CC(=Nc1ccc(C)cc1C)c1sc2ccccc2c1O` the value was 37.2 µM.
Regarding `NC1=NC(=O)/C(=C\C=C\c2ccccc2)S1`, the AC50 is > 38 µM (inactive).
The result for `CC1(OC(=O)C2CCCC2)C(=O)C=C2C=C(c3ccc(C#N)cc3)OC=C2C1=O` (stereo not given) reads 9.38 µM.
The result for `Cc1ccc(-c2cc(C(=O)O)c3cc(Br)ccc3n2)o1` reads > 38 µM (inactive); that for `Nc1cc2c3c(cccc3c1)C(=O)N(CCN1CCCC1)C2=O`, 16 µM; that for `O=C(O)c1cc(O)c2c(c1)[C@@H]([C@H]1c3cc(C(=O)O)cc(O)c3C(=O)c3c(O[C@@H]4O[C@H](CO)[C@@H](O)[C@H](O)[C@H]4O)cccc31)c1cccc(OC3O[C@H](CO)[C@@H](O)[C@H](O)[C@H]3O)c1C2=O` (stereo not given in full), 1.52 µM.
The result for `O=C1c2ccccc2C(=O)N1/N=C/c1ccc(O)c(O)c1O` reads 0.798 µM; that for `CCOC(=O)NNc1ccc2nonc2c1[N+](=O)[O-]`, > 38 µM (inactive).
As for `O=C1NC(=O)N(c2ccccc2)C(=O)/C1=C/c1ccc([N+](=O)[O-])s1`, the AC50 is 23.7 µM.
`Cc1ccc(S(=O)(=O)N/N=C/c2ccc(O)c(O)c2)cc1[N+](=O)[O-]`: the half-maximal activity concentration (AC50) is 27 µM.
Regarding `COc1ccc2c(c1)c1nc3ccccc3nc1n2Cc1ccc(OC(C)C)c(OC)c1`, the AC50 was 24.3 µM.
For `Oc1ccc(N=Nc2n[nH]c(-c3ccccc3)n2)cc1` the value was 4.21 µM; for `Cc1cccc(C)c1NC(=O)/C(C#N)=C/c1ccc(-c2ccc(C(=O)O)cc2)o1`, > 38 µM (inactive); for `CN(C)c1ccc(/C=C/c2nc3ccccc3c(=O)[nH]2)cc1`, > 38 µM (inactive).
For `O=c1[nH]c(=S)n(-c2ccc(Cl)cc2)c(O)c1C=Nc1ccc(N2CCOCC2)cc1`, the AC50 is 30 µM.
For `CN1C(=O)/C(=C/c2cn(CC(=O)N3CCCCC3)c3ccccc23)c2ccccc21` the value was > 38 µM (inactive); for `COc1cccc(N=Nc2c(N)[nH][nH]c2=O)c1`, 10.3 µM.
The result for `Cc1cccc(-n2c(O)c(C=Nc3ccc4c(c3)OCO4)c3ccccc3c2=O)n1` reads 39 µM; that for `O=C(c1nc2ccc(Cl)cn2c1CN1CCC[C@H]1CO)N1CCCCCCC1`, 27.3 µM.
Consider `CNC(=O)c1c(NC(=O)c2ccc(S(=O)(=O)N(C)c3ccccc3)cc2)sc2c1CCN(C(C)C)C2`, for which the AC50 is 25.2 µM.
For the molecule `O=[N+]([O-])c1ccc(O)c(C=Nc2ccc3c(c2)OCCO3)c1`, the AC50 was > 38 µM (inactive).
`CCOc1ccc(-c2c(C#N)c(N)nc3sc(C(=O)c4ccccc4)c(N)c23)cc1`: the half-maximal activity concentration (AC50) is 35.5 µM.
The result for `O=C(NNc1ncnc2c1cnn2-c1ccc(F)cc1)c1ccco1` reads 15.9 µM.
The result for `Cc1ccc(C(=O)N/C(=C\c2ccc(-c3ccc([N+](=O)[O-])cc3)o2)C(=O)NC2CCS(=O)(=O)C2)cc1` (stereo not given) reads > 38 µM (inactive); that for `CCCCN(C(=O)C1=COCCO1)c1c(N)n(Cc2ccccc2)c(=O)[nH]c1=O`, > 38 µM (inactive).
On to `CC(C)OC(=O)c1c2c(n3ccccc13)C(=O)c1ccccc1C2=O`, for which the half-maximal activity concentration (AC50) is 19.1 µM.
For `O=C(NNC(=O)c1ccccc1O)c1ccc(S(=O)(=O)Nc2ccccc2)cc1` the value was 11.4 µM.
The result for `CN1CC=C2C(C#N)=C(N)C(C#N)(C#N)[C@H](c3ccoc3)[C@H]2C1` reads 32.4 µM; that for `O=C(Nc1ccc(S(=O)(=O)Nc2nccs2)cc1)c1ccc(N2C(=O)c3ccccc3C2=O)cc1`, > 38 µM (inactive); that for `CCN1C/C(=C/c2ccc(OC)c(O)c2)C(=O)/C(=C/c2ccc(OC)c(O)c2)C1`, > 38 µM (inactive).
For `Nc1nnnn1/N=C/c1cc(Cl)ccc1O` the value was 37.5 µM; for `CC1=NN2C(=N)/C(=C\c3ccc(SCc4ccccc4)o3)C(=O)N=C2S1`, 38 µM; for `CC(=O)Nc1ccc2cc3ccc(NC(C)=O)cc3nc2c1`, 10.9 µM.
With `Cn1c(=O)c(Nc2ccc(Cl)cc2)c2c3c(cccc31)C(=O)c1ccccc1-2`, the half-maximal activity concentration (AC50) is 1.63 µM.
As to `CCn1c(CSc2nnc3ccccn23)nc2cc(C(=O)O)ccc21`, the AC50 is 33.9 µM.
With `O=C(O)c1c2c(nc3ccccc13)/C(=C/c1ccc(O)cc1)CC2`, the AC50 is 36.4 µM.
`COc1ccc(C(=O)C/C(=C\C(=O)c2ccc(C)cc2)c2ccccc2)cc1`: the AC50 was > 38 µM (inactive).
For the molecule `COC(=O)CCC(=O)OC1(C)C(=O)C2=CN(Cc3ccco3)C(c3ccc(OC)cc3)=CC2=C(Br)C1=O` (stereo not given), the AC50 is 21.1 µM.
Regarding `CCCCn1c(O)c(N=Nc2ccccn2)c2ccccc21`, the AC50 was 24.2 µM.
Turning to `N#Cc1c(C#N)c(O)c2ccccc2c1O`, the AC50 was 11.3 µM.
On to `Cc1ccccc1Nc1cc2ccccc2c(=O)[nH]1`, for which the concentration at half-maximal activity (AC50) is 14.3 µM.
The result for `Oc1ccc(/C=N/n2c(-c3ccccc3)n[nH]c2=S)cc1Br` reads 13.1 µM; that for `N#CC1(C#N)C(c2ccccc2)OC23CCCCC2C1(C#N)C(=N)O3` (stereo not given), > 38 µM (inactive).
The result for `O=C(O)CCN1C(=O)/C(=C\c2ccc(-c3nc4ccccc4s3)o2)SC1=S` reads 3.89 µM.
Take `Cc1cc[n+](-c2[nH]c(=O)sc2/C=N/NC([S-])=Nc2ccccc2)cc1`: the AC50 was 4.83 µM.
On to `COC(=O)/C=C1/S/C(=N/NC(=O)c2ccc(Cl)cc2Cl)NC1=O`, for which the AC50 was 22.4 µM.
In the case of `O=C(CSc1ncn[nH]1)Nc1c(Br)cc([N+](=O)[O-])cc1Br`, the concentration at half-maximal activity (AC50) is 14 µM.
Take `CC1(C)CC(=O)C2=C(C1)N=c1s/c(=C/c3ccc(F)c(F)c3)c(=O)n1C2c1ccc(F)cc1` (stereo not given): the AC50 was > 38 µM (inactive).
As for `O=C(Nc1nc2c(s1)CN(Cc1ccccc1)CC2)c1cccc(S(=O)(=O)N2CCc3ccccc32)c1`, the AC50 was > 38 µM (inactive).
On to `COC(=O)COc1ccc(C2Nc3c(Cl)ccc(C(=O)O)c3C3C=CCC32)cc1` (stereo not given), for which the AC50 was > 38 µM (inactive).
`CN(C)c1ccc(N=Cc2nc(-c3ccccc3)oc2OC(=O)c2cccc(Br)c2)cc1`: the AC50 is > 38 µM (inactive).
For `COc1cc(C=C2C(=O)c3ccccc3C2=O)cc(OC)c1OC` the value was 28.4 µM; for `COc1ccc(/C=C2\C(=O)NC(=S)N2C(=O)c2ccc(C)cc2)cc1`, > 38 µM (inactive).
The result for `COc1cc(N2CCCC2)c(OC)cc1/C=C(/C#N)c1cccc(Br)c1` reads 10.3 µM; that for `Cc1ccc(N=Nc2c(O)n(CN3CCOCC3)c3ccccc23)cc1`, 11.4 µM.
For `NC(=S)N/N=C/c1cccc(O)c1O` the value was 21.2 µM; for `O=C(C1=NN(c2ccccc2)C2C(=O)N(c3ccccc3)C(=O)C12)c1ccccc1` (stereo not given), 32 µM.
With `COc1ccc(CC(=O)NNC(=O)c2cnccn2)cc1`, the concentration at half-maximal activity (AC50) is 15.5 µM.
